The values below are quoted from earlier work in US8202852B2, “Creatine phosphate analog prodrugs, compositions and uses thereof” (XenoPort, Inc., priority 2006, dated 2012).

Read-outs that look alike come from different tables or passages of the source.

Experiment in data set [1]: not given
The source holds these as a separate data set.

The conditions of data set [2]: animals, diet containing up to 1%.

With `CN(CC(=O)O)C(=N)N.O` [creatine monohydrate], the adverse side effects result (athletes and body builders, 2-3 gm/day) is listed as “without adverse side effects”.

Turning to `CN(CC(=O)O)C(=N)NP(=O)(O)O` [creatine phosphate], the adverse side effects entry (patients with cardiac diseases, intravenous injection up to 8 gm/day) is reported as “without adverse side effects”.

As for `CN(CC(=O)O)C(=N)N` [creatine, Creatine], in data set [1] (creatine supplementation, typically takes weeks), the “overall increase in creatine phosphate levels” value was less than 50%. Also, the “increase in cerebral creatine phosphate” value in data set [1] (healthy volunteers, oral creatine administration) is “about 10%”.

Regarding `NC1=NCCN1CC(=O)O` [cyclocreatine], the adverse effects entry in data set [2] is “do not exhibit adverse effects”.
